Several values for one entry are separate records, joined by “and”; a condition that tells them apart may be missing. Equal values may be shown once.
Experiments:
[1] = system: differentiated 3T3-L1 adipocytes; assay: Insulin-stimulated glucose uptake assay by (3H)2-deoxyglucose; format: cell-based, mouse; set-up: insulin-stimulated glucose uptake, Fig 1J replicates / Figure 5E raw value, insulin-stimulated glucose uptake (replicates): unit not given here
Protocol: The cell lines, which were tested for mycoplasma contamination and authenticated, were purchased from the Bioresource Collection and Research Center, Taiwan. All cells were cultured at 37 °C, 5% CO2 in a humidified incubator. HEK293T cells were maintained in DMEM (cat. no. SH30003.02, HyClone) supplemented with 10% fetal bovine serum (FBS) (cat. no. 04-001-1A, Biological Industries) and 1% antibiotic/antimycotic solution (cat. no. SV30079.01, HyClone). 3T3-L1 preadipocytes were maintained at ~70% confluence in DMEM with 10% calf serum (cat. no. 16170078, Gibco) and 1% antibiotic/antimycotic solution. For adipocyte differentiation, confluent 3T3-L1 cells (defined as day 0) were exposed to an induction medium containing 10% FBS, 1 μM dexamethasone (cat. no. D4902, Sigma-Aldrich), and 1 μg/ml insulin (Humulin R, Eli Lilly) in DMEM with or without 0.5 mM isobutyl-methylxanthine (cat. no. sc-201188A, Santa Cruz Biotechnology) as indicated. After two days, the medium was replaced with DMEM containing 10% FBS and 1 μg/ml insulin and was replenished every two days until assay.
Differentiated 3T3-L1 cells were starved with serum-free DMEM containing 0.2% BSA (cat. no. A9647, Sigma-Aldrich). Cells were rinsed twice with KRH buffer (137 mM NaCl, 4.7 mM KCl, 1.85 mM CaCl2, 1.3 mM MgSO4, 50 mM HEPES and 0.1% BSA, pH 7.4), and treated with or without […] insulin in the presence of 20 μM cytochalasin B (cat. no. 11328, Cayman Chemical), a GLUT inhibitor for measuring non-specific glucose uptake, for 30 min. Cells were then incubated with 0.5 μCi [^3H]-2-deoxy-D-Glucose (cat. no. NET328A001MC, PerkinElmer) and 0.1 μM 2-deoxy-D-Glucose (2DG) (cat. no. 14325, Cayman Chemical) for 5 min. Uptake of 2DG was terminated by rapidly removing medium and washing with ice-cold PBS three times. Cells were lysed with 0.1% SDS, and the radioactivity was measured using a liquid scintillation counter. Insulin-mediated glucose uptake was calculated by subtracting insulin-treated glucose uptake with basal glucose uptake.

[2] = system: HFHSD-fed obese C57BL6/J mice; assay: Body composition (fat mass, lean mass, free water, total water); format: in vivo, mouse; conditions: 40 mg/kg/day ip, HFHSD-fed mice
[3] = system: HFHSD-fed obese C57BL6/J mice; assay: Body weight / diet-induced obesity in HFHSD-fed mice; format: in vivo, mouse; conditions: 40 mg/kg/day ip; for Body weight, individual mice / Body weight, Average: in g (unit assumed)
[4] = system: HFHSD-fed obese C57BL6/J mice; assay: Insulin tolerance test (ITT); format: in vivo, mouse; set-up: Figure 2I Average (glucose, ITT) / ITT / ITT glucose, Average / Blood glucose during insulin tolerance test (Figure 5M), Average: unit not given here; conditions: for ITT: individual mice
Protocol: (§1) Glucose tolerance was evaluated by the oral (OGTT) and intraperitoneal glucose tolerance test (ipGTT) after a 6-h fast. For the OGTT, glucose water (1 mg/g) was given by oral gavage, and tail blood glucose was measured with a glucometer (ACCU-CHEK Performa, Roche) at 0, 15, 30, 45, 60, 90, and 120 min. For the ipGTT, tail blood glucose was measured at 0, 15, 30, 45, 60, 90, and 120 min after intraperitoneal injection of glucose water (1 mg/g). For the insulin tolerance test (ITT), mice were fasted for 4 h and then injected intraperitoneally with 1 U/kg of insulin (Humulin R, Eli Lilly). Tail blood glucose was measured at 0, 15, 30, 45, 60, 90, 120, and 180 min.

[5] = system: HFHSD-fed obese C57BL6/J mice; assay: Intraperitoneal glucose tolerance test (ipGTT); format: in vivo, mouse; set-up: Figure 2H Average (glucose, ipGTT) / ipGTT / ipGTT glucose, Average / Blood glucose during glucose tolerance test (Figure 5L), Average: unit not given here; conditions: for ipGTT: individual mice
Protocol: as §1

[6] = 40 mg/kg/day ip, 3 weeks, HFHSD-fed mice, vs vehicle

CCCCCC(=O)/C=C/[C@H]1[C@H](O)CC(=O)[C@@H]1C/C=C\CCCC(=O)O [15-keto-PGE2, 15-keto-prostaglandin E2]
insulin-stimulated glucose uptake, Fig 1J replicates ([1]; 15kPGE2 1): 1.328 and 1.441 and 0.8491 and 1.4653
insulin-stimulated glucose uptake, Fig 1J replicates ([1]; 15kPGE2 5): 3.521 and 4.331 and 2.858 and 2.553
insulin-stimulated glucose uptake, Fig 1J replicates ([1]; 15kPGE2 10): 4.083 and 4.476 and 3.119 and 3.373
insulin-stimulated glucose uptake ([1]; differentiated 3T3-L1 adipocytes): increased insulin-stimulated glucose uptake in differentiated 3T3-L1 adipocytes dose-dependently
body composition: fat mass ([2]; 3 weeks, vs vehicle): reduced fat mass
fluid retention (body composition) ([2]; 3 weeks, vs vehicle): without fluid retention
fat mass, Fig 2K, per mouse ([2]; listed as 15kPGE2): 5.32 and 2.67 and 2.477 and 3.3 and 3.197 and 3.02 and 3.75 and 4.29 and 2.763 and 2.153 and 4.333 and 4.837 and 5.383 and 6.203
free water, Fig 2K, per mouse ([2]; listed as 15kPGE2): 2.353 and 2.46 and 2.333 and 2.08 and 2.14 and 2.517 and 2.187 and 2.62 and 2.42 and 2.197 and 2.23 and 2.307 and 2.467
lean mass, Fig 2K, per mouse ([2]; listed as 15kPGE2): 21.65 and 22.52 and 23.3767 and 19.74 and 20.2767 and 20.98 and 21.1733 and 22.3667 and 21.9633 and 21.94 and 20.5267 and 22.2733 and 21.2733 and 21.61
total water, Fig 2K, per mouse ([2]; listed as 15kPGE2, in g (unit assumed)): 19.6733 and 20.4733 and 21.0367 and 17.8733 and 18.36 and 19.3 and 19.1267 and 20.5133 and 19.99 and 19.7467 and 18.65 and 20.1267 and 19.4833 and 19.7567
diet-induced obesity (body weight) ([3]; 3 weeks, HFHSD-fed mice, vs vehicle): protected against diet-induced obesity
Body weight, individual mice ([3]; treatment day 1, 40 mg/kg/day): 31.70 and 29.90 and 31.10 and 26.25 and 27.55
Body weight, Average ([3]; treatment day 1): 29.83
Body weight, individual mice ([3]; treatment day 2, 40 mg/kg/day): 31.55 and 28.75 and 30.85 and 26.15 and 27.85
Body weight, Average ([3]; treatment day 2): 29.61
Body weight, Average ([3]; treatment day 3, 40 mg/kg/day): 29.4
Body weight, individual mice ([3]; treatment day 3, 40 mg/kg/day): 31.60 and 29.00 and 30.75 and 25.90 and 26.35
Body weight, individual mice ([3]; treatment day 4, 40 mg/kg/day): 32.50 and 27.95 and 30.90 and 25.75 and 26.90
Body weight, Average ([3]; treatment day 4): 29.42
Body weight, individual mice ([3]; treatment day 5, 40 mg/kg/day): 32.50 and 26.45 and 30.70 and 25.35 and 26.25
Body weight, Average ([3]; treatment day 5): 29.42
Body weight, individual mice ([3]; treatment day 6, 40 mg/kg/day): 32.60 and 26.45 and 30.00 and 25.75
Body weight, Average ([3]; treatment day 6): 29.49
Body weight, individual mice ([3]; treatment day 7, 40 mg/kg/day): 32.60 and 26.55 and 30.10 and 26.40
Body weight, Average ([3]; treatment day 7): 29.61
Body weight, individual mice ([3]; treatment day 8, 40 mg/kg/day): 31.90 and 27.35 and 30.10 and 25.05
Body weight, Average ([3]; treatment day 8): 29.92
Body weight, individual mice ([3]; treatment day 9, 40 mg/kg/day): 31.40 and 28.05 and 30.70 and 25.90
Body weight, Average ([3]; treatment day 9): 29.95
Body weight, individual mice ([3]; treatment day 10, 40 mg/kg/day): 30.70 and 28.45 and 30.20 and 26.55 and 27.35
Body weight, Average ([3]; treatment day 10): 29.99
Body weight, individual mice ([3]; treatment day 11, 40 mg/kg/day): 31.60 and 28.55 and 30.40 and 27.50 and 26.90
Body weight, Average ([3]; treatment day 11): 30.05
Body weight, Average ([3]; treatment day 12, 40 mg/kg/day): 30.2
Body weight, individual mice ([3]; treatment day 12, 40 mg/kg/day): 31.60 and 29.05 and 30.95 and 27.45 and 27.10
Body weight, individual mice ([3]; treatment day 13, 40 mg/kg/day): 31.75 and 30.2 and 31.6 and 28.55 and 28.05
Body weight, Average ([3]; treatment day 13): 30.36
Body weight, individual mice ([3]; treatment day 14, 40 mg/kg/day): 31.65 and 30.50 and 31.35 and 28.35 and 27.80
Body weight, Average ([3]; treatment day 14): 30.49
Body weight, individual mice ([3]; treatment day 15, 40 mg/kg/day): 31.70 and 29.55 and 30.65 and 27.45 and 27.00
Body weight, Average ([3]; treatment day 15): 30.22
Body weight, individual mice ([3]; treatment day 16, 40 mg/kg/day): 31.85 and 29.40 and 30.30 and 27.00 and 26.50
Body weight, Average ([3]; treatment day 16): 30.12
Body weight, individual mice ([3]; treatment day 17, 40 mg/kg/day): 32.75 and 29.85 and 31.95 and 27.85 and 26.80
Body weight, Average ([3]; treatment day 17): 30.56
Body weight, individual mice ([3]; treatment day 18, 40 mg/kg/day): 31.80 and 29.75 and 32.10 and 27.75
Body weight, Average ([3]; treatment day 18): 30.63
Body weight, individual mice ([3]; treatment day 19, 40 mg/kg/day): 33.15 and 31.50 and 32.00 and 28.35 and 27.70
Body weight, Average ([3]; treatment day 19): 30.65
Body weight, individual mice ([3]; treatment day 20, 40 mg/kg/day): 33.10 and 30.85 and 31.55 and 27.75 and 27.15
Body weight, Average ([3]; treatment day 20): 30.69
Body weight, individual mice ([3]; treatment day 21, 40 mg/kg/day): 32.55 and 30.9 and 31.6 and 28 and 28.15
Body weight, Average ([3]; treatment day 21): 30.73
insulin sensitivity (ITT) [4, 6]: markedly improved
ITT ([4]; 0 min): 113 and 114 and 91 and 147 and 149 and 115 and 92 and 118 and 94 and 110 and 98 and 125
ITT ([4]; 15 min): 59 and 78 and 70 and 67 and 83 and 90 and 111 and 75 and 45 and 63 and 82 and 49 and 92
ITT ([4]; 30 min): 56 and 79 and 54 and 62 and 52 and 71 and 66 and 57 and 43 and 75 and 46
ITT ([4]; 45 min): 34 and 60 and 37 and 51 and 42 and 62 and 56 and 47 and 44 and 30 and 54 and 50 and 29
ITT ([4]; 60 min): 23 and 57 and 21 and 58 and 46 and 66 and 49 and 34 and 31 and 26 and 51 and 53 and 50 and 39 and 29
ITT ([4]; 90 min): 22 and 65 and 25 and 41 and 63 and 57 and 31 and 37 and 56 and 38 and 49 and 24 and 27
ITT ([4]; 120 min): 46 and 53 and 25 and 39 and 54 and 62 and 47 and 31 and 70 and 51 and 36
ITT ([4]; 180 min): 98 and 66 and 25 and 65 and 84 and 62 and 77 and 73 and 54 and 78 and 69 and 82
Figure 2I Average (glucose, ITT) ([4]; time 0): 112.333
Figure 2I Average (glucose, ITT) ([4]; time 15): 74.4667
Figure 2I Average (glucose, ITT) ([4]; time 30): 60.8
Figure 2I Average (glucose, ITT) ([4]; time 45): 46.2667
Figure 2I Average (glucose, ITT) ([4]; time 60): 42.2
Figure 2I Average (glucose, ITT) ([4]; time 90): 41.1333
Figure 2I Average (glucose, ITT) ([4]; time 120): 45.6667
Figure 2I Average (glucose, ITT) ([4]; time 180): 67.6667
glucose tolerance (ipGTT) [5, 6]: markedly improved
ipGTT ([5]; 0 min): 105 and 98 and 102 and 88 and 151 and 155 and 75 and 78 and 93 and 125 and 111
ipGTT ([5]; 15 min): 222 and 226 and 190 and 213 and 239 and 234 and 324 and 231 and 152 and 188 and 183 and 251 and 245 and 276
ipGTT ([5]; 30 min): 262 and 264 and 155 and 201 and 221 and 211 and 273 and 247 and 125 and 124 and 200 and 186 and 235 and 231 and 280
ipGTT ([5]; 45 min): 229 and 251 and 162 and 188 and 184 and 199 and 252 and 215 and 109 and 112 and 132 and 155 and 211 and 175 and 213
ipGTT ([5]; 60 min): 262 and 225 and 130 and 171 and 177 and 179 and 196 and 206 and 110 and 120 and 89 and 133 and 182 and 155 and 205
ipGTT ([5]; 90 min): 208 and 191 and 114 and 152 and 166 and 143 and 171 and 181 and 88 and 108 and 112 and 151 and 124
ipGTT ([5]; 120 min): 166 and 121 and 99 and 122 and 118 and 90 and 69 and 80 and 108 and 131 and 100 and 135
Figure 2H Average (glucose, ipGTT) ([5]; time 0): 108.467
Figure 2H Average (glucose, ipGTT) ([5]; time 15): 223.8
Figure 2H Average (glucose, ipGTT) ([5]; time 30): 214.333
Figure 2H Average (glucose, ipGTT) ([5]; time 45): 185.8
Figure 2H Average (glucose, ipGTT) ([5]; time 60): 169.333
Figure 2H Average (glucose, ipGTT) ([5]; time 90): 144.2
Figure 2H Average (glucose, ipGTT) ([5]; time 120): 109.267
